Experimental data: US8545816B2, “Benzoic acid ester compounds, compositions, uses and methods related thereto” (Ferrer Internacional, S.A., priority 2005, dated 2013)

Key:
[1] = Phototransposition under UVB lamp irradiation (UV absorption spectrum / TLC follow-up); format: physicochemical; details: for time to complete phototransposition (conversion to the dibenzoylmethane / benzophenone sunscreen): solution in methanol
Method: A solution of 5 mg of 1-phenylvinyl 4-methoxybenzoate in 10 mL of methanol was irradiated with UVB lamps ([…]) for 20 minutes at 35° C. […] The conversion to benzoyl-4-methoxybenzoyl-methane was observed from the beginning, being the complete conversion in 5 minutes.
A sample of 4 mL of a solution containing 0.231 mg of 1-(4-methoxyphenyl)-vinyl 4-tert-butylbenzoate in 50 mL of methanol was irradiated with UVB lamps (60 W·m^−2) for 10 minutes at 35° C. The conversion to avobenzone was completed in 5 minutes.
A sample of 4 mL of a solution containing 0.400 mg of 1-(4-tert-butylphenyl)-vinyl 4-methoxybenzoate in 50 mL of methanol was irradiated with UVB lamps (60 W·m^−2) for 10 minutes at 35° C. The conversion to avobenzone was completed in 5 minutes.
A solution containing 5 mg of 4-benzoyloxy-2-methoxy-benzenesulfonic acid in 10 mL of methanol was irradiated with UVB lamps (60 W·m^−2) for 20 minutes at 35° C. The absorption spectrum was then recorded minute by minute. The conversion to sulisobenzone was complete in 10 minutes.
A sample of 4 mL of a solution containing 0.395 mg of 3-diethylaminophenyl benzoate in 50 mL of methanol was irradiated with UVB lamps (60 W·m^−2) for 20 minutes at 35° C. The phototransformation to 4-diethylamino-2-hydroxybenzophenone was completed in 10 minutes.
A sample of 5 mg of 3-methoxyphenyl benzoate in 10 mL of polydimethylsiloxane (viscosity 10000 cSt) was irradiated with UVB lamps (60 W·m^−2) for 15 hours and 20 minutes at 35° C. The phototransformation to oxybenzone was completed in 40 minutes.
A solution of 5 mg of 1-phenylvinyl 4-tert-butylbenzoate in 10 mL of tert-butanol was irradiated with UVB lamps (60 W·m^−2) for 5 hours at 35° C.

[2] = cited from earlier work; for Absorbance: UV region absorbed; for Protection nm: wavelength range of protection

Row | time to complete phototransposition (conversion to the dibenzoylmethane / benzophenone sunscreen) ([1]; UVB lamps 60 W·m^−2, 35° C.) | SMILES | Absorbance [2] | Protection nm [2] | further results
1 | 5 min | C=C(OC(=O)c1ccc(OC)cc1)c1ccc(C(C)(C)C)cc1 [1-(4-Tert-butylphenyl)-vinyl 4-methoxybenzoate] | – | – | –
2 | 5 min | C=C(OC(=O)c1ccc(C(C)(C)C)cc1)c1ccc(OC)cc1 [1-(4-Methoxyphenyl)-vinyl 4-tert-butylbenzoate] | – | – | –
3 | 5 min | C=C(OC(=O)c1ccc(OC)cc1)c1ccccc1 [1-phenylvinyl 4-methoxybenzoate, 1-Phenylvinyl 4-methoxybenzoate] | – | – | crude reaction spectrum after irradiation ([1]; methanol, UVB lamps, 20 minutes, 35° C.): new absorption band in UVA zone

Second part, the compound before the results:

Row | SMILES | time to complete phototransposition (conversion to the dibenzoylmethane / benzophenone sunscreen) ([1]; UVB lamps 60 W·m^−2, 35° C.) | Absorbance [2] | Protection nm [2] | further results
4 | COc1cccc(OC(=O)c2ccccc2)c1 [3-methoxyphenyl benzoate, 3-Methoxyphenyl benzoate] | – | – | – | time to complete phototransformation to oxybenzone ([1]; in polydimethylsiloxane (viscosity 10000 cSt), UVB lamps 60 W·m^−2, 35° C.): 40 min
5 | COc1cc(OC(=O)c2ccccc2)ccc1S(=O)(=O)O [4-Benzoyloxy-2-methoxybenzene-sulfonic acid] | 10 min | – | – | –
6 | C=C(OC(=O)c1ccc(C(C)(C)C)cc1)c1ccccc1 [1-phenylvinyl 4-tert-butylbenzoate, 1-Phenylvinyl 4-tert-butyl-benzoate] | – | – | – | products detected after irradiation (thin layer chromatography, 1H-NMR) ([1]; tert-butanol, UVB lamps 60 W·m^−2, 5 hours, 35° C.): Some different compounds were detected by thin layer chromatography (hexane/ethyl acetate 2:1), one of said compounds being benzoyl-4-tert-butylbenzoylmethane
7 | COc1ccc(C(=O)c2ccccc2)c(O)c1 [Oxybenzone, 2-hydroxy-4-methoxybenzophenone] | – | UVB, UVA II^2 | 270-350 nm | –
8 | CCN(CC)c1cccc(OC(=O)c2ccccc2)c1 [3-diethylaminophenyl benzoate, 3-Diethylaminophenyl benzoate] | 10 min | – | – | –
9 | COc1ccc(C(=O)CC(=O)c2ccc(C(C)(C)C)cc2)cc1 [Avobenzone, 4-tert-butyl-4′-methoxydibenzoylmethane] | – | UVA I^1 (340-400 nm) | 320-400 nm | –
10 | COc1cc(O)c(C(=O)c2ccccc2)cc1S(=O)(=O)O [Sulisobenzone, 5-benzoyl-4-hydroxy-2-methoxy-benzenesulfonic acid] | – | UVB, UVA II^2 | 260-375 nm | –
